Laboratory results as given in article PMC8836905, “Structural and Biochemical Analysis of the Furan Aldehyde Reductase YugJ from Bacillus subtilis” (International Journal of Molecular Sciences, 2022).
Blank lines part the entries; values can stand above or below the compound they belong to.

Experiments:
[1] = molecular target: T1, YugJ (Bacillus spizizenii, UniProt Z9GGM4DFS4); assay: X-ray crystal structure; type: binding
T1 construct: full-length residues 1-387; N-terminal His6 tag removed with thrombin; E. coli BL21(DE3); homodimer

[2] = molecular target: YugJ from Bacillus subtilis (furan aldehyde reductase) (B. subtilis subsp. spizizenii) (UniProt O05239); assay: SEC; gel filtration on Superdex 200 10/300 in 20 mM Tris, pH 8.0, 150 mM NaCl, 5 mM β-mercaptoethanol; eluted between 44 and 158 kDa standards
[3] = molecular target: T1, YugJ; assay: NADPH oxidation at […] nm, HMF reduction; type: biochemical; conditions: 3 mM HMF, 0.2 mM NADPH, Ni2+-bound YugJ, 50 mM HEPES pH 7.4, 150 mM NaCl, 23 °C; presumed competitive

Chain of YugJ from Bacillus subtilis (furan aldehyde reductase) (O05239 whole entry): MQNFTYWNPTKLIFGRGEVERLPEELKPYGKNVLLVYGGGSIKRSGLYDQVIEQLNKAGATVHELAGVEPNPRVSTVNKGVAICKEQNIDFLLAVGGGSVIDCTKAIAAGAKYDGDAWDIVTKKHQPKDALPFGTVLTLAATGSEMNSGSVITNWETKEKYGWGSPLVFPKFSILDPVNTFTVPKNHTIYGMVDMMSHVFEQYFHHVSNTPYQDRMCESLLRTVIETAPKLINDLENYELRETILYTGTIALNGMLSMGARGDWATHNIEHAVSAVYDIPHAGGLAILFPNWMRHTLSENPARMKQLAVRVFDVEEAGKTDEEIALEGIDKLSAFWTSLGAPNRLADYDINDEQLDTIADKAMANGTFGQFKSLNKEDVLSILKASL

Compound: NC(=O)c1ccc[n+]([C@@H]2O[C@H](COP(=O)(O)OP(=O)(O)OC[C@H]3O[C@@H](n4cnc5c(N)ncnc54)[C@H](OP(=O)(O)O)[C@@H]3O)[C@@H](O)[C@H]2O)c1 [NADP]
- X-ray crystal structure ([1]; 1.65 Å with nitrate (7W9Z), 1.93 Å with Ni2+, nicotinamide disordered (7W9Y), interdomain cleft): we determined the crystal structures of YugJ in complex with NADP in two crystal forms

- stoichiometry N [2]: 2
Compound: YugJ from Bacillus subtilis (furan aldehyde reductase) (from UniProt O05239 1-387) (enzyme)

- % inhibition at 360 mM lithium nitrate [3]: ~ 75%
Compound: O=[N+]([O-])O [nitrate]
- X-ray crystal structure ([1]; 1.65 Å, with NADP, 0.3 M ammonium nitrate in crystallisation, pH 6.5, near nicotinamide ring, putative substrate site): nitrate ion forms hydrogen bonds with the nicotinamide-linked ribose moiety of NADP
